Reference: PubChem BioAssay AID330 (DTP/NCI, 2004)
“And” between values parts separate entries of the source, which are not always exact repeats. Equal entries are not always repeated. Inconclusive results and toxic doses are left out.

Tested on: P388 leukemia ip, CD2F1 mice, survival T/C
Assay: NCI In Vivo Anticancer Drug Screen. Data for tumor model P388 Leukemia (intraperitoneal) in CD2F1 (CDF1) mice
Conditions: endpoint: median survival time, higher = longer survival
How it was run: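 Mice carrying the transplanted tumor received test compound or vehicle. Survival was recorded in each group, and the value is the treated-group measurement divided by that of the vehicle-treated control group.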

[1] = dose: 50.0 mg/kg/injection, schedule: Q01DX005 (ip), vehicle: saline with Tween-80
[2] = dose: 100.0 mg/kg/injection, schedule: Q01DX005 (ip), vehicle: saline with Tween-80
[3] = dose: 200.0 mg/kg/injection, schedule: Q01DX005 (ip), vehicle: saline with Tween-80
[4] = dose: 12.5 mg/kg/injection, schedule: Q01DX009 (ip), vehicle: water
[5] = dose: 25.0 mg/kg/injection, schedule: Q01DX009 (ip), vehicle: water
[6] = dose: 60.0 mg/kg/injection, schedule: Q01DX005 (ip), vehicle: saline with Tween-80
[7] = dose: 120.0 mg/kg/injection, schedule: Q01DX005 (ip), vehicle: saline with Tween-80
[8] = dose: 240.0 mg/kg/injection, schedule: Q01DX005 (ip), vehicle: saline with Tween-80
[9] = dose: 12.5 mg/kg/injection, schedule: Q01DX009 (ip), vehicle: saline with Tween-80
[10] = dose: 25.0 mg/kg/injection, schedule: Q01DX009 (ip), vehicle: saline with Tween-80
[11] = dose: 50.0 mg/kg/injection, schedule: Q01DX009 (ip), vehicle: saline with Tween-80
[12] = dose: 100.0 mg/kg/injection, schedule: Q01DX009 (ip), vehicle: saline with Tween-80
[13] = dose: 200.0 mg/kg/injection, schedule: Q01DX009 (ip), vehicle: saline with Tween-80

C=CCNC(=S)Nc1ccccn1
T/C [1]: 104 % of control
T/C [2]: 100 % of control
T/C [3]: 102 % of control

O=[N+]([O-])c1ccc(/C(=C/c2ccccc2)S(=O)(=O)C(Cl)(Cl)Cl)o1
T/C (dose: 12.5 mg/kg/injection, schedule: Q01DX009 (ip), vehicle: saline): 102 % of control and 97 % of control
T/C (dose: 25.0 mg/kg/injection, schedule: Q01DX009 (ip), vehicle: saline): 104 % of control and 92 % of control
T/C (dose: 50.0 mg/kg/injection, schedule: Q01DX009 (ip), vehicle: saline): 104 % of control and 92 % of control
T/C (dose: 50.0 mg/kg/injection, schedule: Q01DX009 (ip), vehicle: suspension in saline): 100 % of control
T/C (dose: 100.0 mg/kg/injection, schedule: Q01DX009 (ip), vehicle: saline): 101 % of control and 112 % of control

CN=C(N)NN=C(c1ccc(F)cc1)c1ccc(F)cc1
T/C (dose: 12.5 mg/kg/injection, schedule: Q04DX002 (ip), vehicle: saline with Tween-80): 100 % of control and 106 % of control
T/C (dose: 50.0 mg/kg/injection, schedule: Q04DX002 (ip), vehicle: saline with Tween-80): 87 % of control

CCc1cccc(C)c1NC(=O)CCc1nnc(N)n1N
T/C [1]: 104 % of control
T/C [2]: 107 % of control
T/C [3]: 94 % of control

CC1(C)N=NC([Si](C)(C)C)=C1C(=O)c1ccccc1
T/C (dose: 60.0 mg/kg/injection, schedule: Q01DX005 (ip), vehicle: Klucel (hydroxypropylcellulose) (HPC)): 101 % of control
T/C (dose: 120.0 mg/kg/injection, schedule: Q01DX005 (ip), vehicle: Klucel (hydroxypropylcellulose) (HPC)): 98 % of control
T/C (dose: 240.0 mg/kg/injection, schedule: Q01DX005 (ip), vehicle: Klucel (hydroxypropylcellulose) (HPC)): 105 % of control

CCOC(=O)C1=CC(Oc2cc(NS(=O)(=O)c3ccccc3)ccc2O)C(C(=O)OCC)=CC1Oc1cc(NS(=O)(=O)c2ccccc2)ccc1O (centres undefined)
T/C (dose: 37.5 mg/kg/injection, schedule: Q01DX001 (ip), vehicle: saline with Tween-80): 105 % of control
T/C (dose: 75.0 mg/kg/injection, schedule: Q01DX001 (ip), vehicle: saline with Tween-80): 100 % of control
T/C (dose: 150.0 mg/kg/injection, schedule: Q01DX001 (ip), vehicle: saline with Tween-80): 100 % of control

O=C(O)c1nnc(C(=O)O)nn1
T/C (dose: 6.25 mg/kg/injection, schedule: Q01DX009 (ip), vehicle: water): 98 % of control
T/C [4]: 103 % of control
T/C [5]: 102 % of control
T/C (dose: 50.0 mg/kg/injection, schedule: Q01DX009 (ip), vehicle: water): 100 % of control
T/C (dose: 100.0 mg/kg/injection, schedule: Q01DX009 (ip), vehicle: water): 90 % of control

O=C1Nc2cccnc2NC2=C1CSC2
T/C [6]: 110 % of control
T/C [7]: 97 % of control
T/C [8]: 98 % of control

CCCCCCCCCCSCC(N)C(=O)O (centres undefined)
T/C (dose: 50.0 mg/kg/injection, schedule: Q01DX009 (ip), vehicle: other): 89 % of control
T/C (dose: 100.0 mg/kg/injection, schedule: Q01DX009 (ip), vehicle: other): 88 % of control
T/C (dose: 200.0 mg/kg/injection, schedule: Q01DX009 (ip), vehicle: other): 94 % of control
T/C (dose: 400.0 mg/kg/injection, schedule: Q01DX009 (ip), vehicle: other): 99 % of control

CC1=C(C(=O)N=C(N)C(Cl)(Cl)Cl)SCCO1
T/C (dose: 50.0 mg/kg/injection, schedule: Q01DX005 (ip), vehicle: distilled water + alcohol): 108 % of control
T/C (dose: 100.0 mg/kg/injection, schedule: Q01DX005 (ip), vehicle: distilled water + alcohol): 109 % of control
T/C (dose: 200.0 mg/kg/injection, schedule: Q01DX005 (ip), vehicle: distilled water + alcohol): 117 % of control

Nc1cc(N)c(Nc2ccccc2)cc1Nc1ccccc1
T/C (dose: 100.0 mg/kg/injection, schedule: Q01DX001 (ip), vehicle: Klucel (hydroxypropylcellulose) (HPC)): 99 % of control
T/C (dose: 200.0 mg/kg/injection, schedule: Q01DX001 (ip), vehicle: Klucel (hydroxypropylcellulose) (HPC)): 101 % of control
T/C (dose: 400.0 mg/kg/injection, schedule: Q01DX001 (ip), vehicle: Klucel (hydroxypropylcellulose) (HPC)): 97 % of control

CN1OC(C#N)CC1c1ccccc1 (centres undefined)
T/C (dose: 12.5 mg/kg/injection, schedule: Q04DX002 (ip), vehicle: Klucel (hydroxypropylcellulose) (HPC)): 100 % of control
T/C (dose: 25.0 mg/kg/injection, schedule: Q04DX002 (ip), vehicle: Klucel (hydroxypropylcellulose) (HPC)): 99 % of control and 101 % of control
T/C (dose: 50.0 mg/kg/injection, schedule: Q04DX002 (ip), vehicle: Klucel (hydroxypropylcellulose) (HPC)): 101 % of control and 112 % of control
T/C (dose: 87.5 mg/kg/injection, schedule: Q04DX002 (ip), vehicle: Klucel (hydroxypropylcellulose) (HPC)): 101 % of control
T/C (dose: 100.0 mg/kg/injection, schedule: Q04DX002 (ip), vehicle: Klucel (hydroxypropylcellulose) (HPC)): 103 % of control and 105 % of control and 121 % of control
T/C (dose: 350.0 mg/kg/injection, schedule: Q04DX002 (ip), vehicle: Klucel (hydroxypropylcellulose) (HPC)): 100 % of control

NC(CCSCc1ccccc1)P(=O)(O)O (centres undefined)
T/C [1]: 100 % of control
T/C [2]: 97 % of control
T/C [3]: 92 % of control

O=c1nc(Nc2cccc(Cl)c2)oc2cc(Cl)oc(=O)c12
T/C [9]: 109 % of control
T/C [10]: 109 % of control
T/C [11]: 113 % of control and 115 % of control
T/C [12]: 95 % of control

O=C(NCCCl)Nc1ccn(C(=O)NCCCl)c(=O)n1
T/C [1]: 95 % of control
T/C [2]: 100 % of control

COC(=O)C12CC3CC(CC(NC(=O)C(Cc4ccccc4)NC(=O)CN)(C3)C1)C2 (centres undefined)
T/C (dose: 60.0 mg/kg/injection, schedule: Q01DX005 (ip), vehicle: saline): 94 % of control
T/C (dose: 120.0 mg/kg/injection, schedule: Q01DX005 (ip), vehicle: saline): 99 % of control
T/C (dose: 240.0 mg/kg/injection, schedule: Q01DX005 (ip), vehicle: saline): 94 % of control

N#Cc1nc2c(nc1C#N)-c1ccccc1/C2=C1/C(=O)Cc2ccccc21
T/C [6]: 98 % of control
T/C [7]: 99 % of control
T/C [8]: 102 % of control

CCCCN=Cc1c(OC(C)=O)c(OC(C)=O)c(C(C)C)c2cc(C)c(-c3c(C)cc4c(C(C)C)c(OC(C)=O)c(OC(C)=O)c(C=NCCCC)c4c3OC(C)=O)c(OC(C)=O)c12
T/C (dose: 6.25 mg/kg/injection, schedule: Q01DX005 (ip), vehicle: Klucel (hydroxypropylcellulose) (HPC)): 95 % of control
T/C (dose: 12.5 mg/kg/injection, schedule: Q01DX005 (ip), vehicle: Klucel (hydroxypropylcellulose) (HPC)): 98 % of control
T/C (dose: 25.0 mg/kg/injection, schedule: Q01DX005 (ip), vehicle: Klucel (hydroxypropylcellulose) (HPC)): 97 % of control

CC(Nc1ccc([N+](=O)[O-])c2nonc12)C(=O)O (centres undefined)
T/C (dose: 6.25 mg/kg/injection, schedule: Q01DX009 (ip), vehicle: saline with Tween-80): 108 % of control
T/C [9]: 100 % of control
T/C [10]: 111 % of control
T/C [13]: 86 % of control

ClCCCN1CCN(CCCCl)CC1
T/C (dose: 12.5 mg/kg/injection, schedule: Q01DX009 (ip), vehicle: distilled water + alcohol): 113 % of control
T/C (dose: 25.0 mg/kg/injection, schedule: Q01DX009 (ip), vehicle: distilled water + alcohol): 121 % of control
T/C (dose: 100.0 mg/kg/injection, schedule: Q01DX009 (ip), vehicle: distilled water + alcohol): 157 % of control and 190 % of control

CC(=O)Nc1nc(N)nc(NC(C)=O)c1N=O
T/C [11]: 110 % of control
T/C [12]: 119 % of control
T/C [13]: 117 % of control

CC(=O)Nc1ccc(C(c2c(O)cc(C)[nH]c2=O)c2c(O)cc(C)[nH]c2=O)cc1
T/C [11]: 104 % of control
T/C [12]: 112 % of control
T/C [13]: 112 % of control

CC(=O)Nn1cnc2c(SCc3ccccc3)ncnc21
T/C (dose: 50.0 mg/kg/injection, schedule: Q01DX009 (ip), vehicle: Klucel (hydroxypropylcellulose) (HPC)): 100 % of control
T/C [11]: 100 % of control
T/C (dose: 100.0 mg/kg/injection, schedule: Q01DX009 (ip), vehicle: Klucel (hydroxypropylcellulose) (HPC)): 100 % of control
T/C [12]: 95 % of control
T/C (dose: 100.0 mg/kg/injection, schedule: Q04DX003 (ip), vehicle: saline with Tween-80): 95 % of control
T/C (dose: 200.0 mg/kg/injection, schedule: Q01DX009 (ip), vehicle: Klucel (hydroxypropylcellulose) (HPC)): 100 % of control
T/C [13]: 122 % of control

N=C(N)c1ccc(/C=C/c2ccc(C(=N)N)cc2O)cc1
T/C [4]: 111 % of control
T/C (dose: 22.0 mg/kg/injection, schedule: Q01DX009 (ip), vehicle: water): 120 % of control
T/C [5]: 120 % of control

Cc1cnnc2ccccc12
T/C [9]: 98 % of control
T/C [10]: 106 % of control
T/C [11]: 106 % of control

O=S1(=O)OCCCCO1
T/C (dose: 12.5 mg/kg/injection, schedule: Q01DX005 (ip), vehicle: saline): 107 % of control
T/C (dose: 25.0 mg/kg/injection, schedule: Q01DX005 (ip), vehicle: saline): 100 % of control
